Consider six compounds from patent US4302535A, “Assay for mutagenesis in heterozygous diploid human lymphoblasts” (Massachusetts Institute of Technology, priority 1979, dated 1981).

Data set [1] has as its system TK6 cells. The conditions noted are these: induced by BMS (3 mM, 2 hours), 5 μg/ml 6-thioguanine.
Data set [2] relates to TK6 cell line. The data set can be described thus: Mutation assay employing TK6 cell line: induction of TFTdR-resistant mutants (Example 2, Table 1). In kind it is cell-based, human. The method, then: One cell line, TK6, isolated in Example 1, was maintained in spinner culture at 37° C. with a doubling time of approximately 18 hours. Approximately 10^7 cells (4×10^5 /ml) were treated with either BMS (1 mM) of ICR-191 (0.25 μg/ml and 0.50 μg/ml) for 24 hours. After treatment, the cells were centrifuged and resuspended in fresh medium at a concentration of 3×10^5 /ml. Dilutions to 3×10^5 /ml were made daily.
At various times after treatment, duplicate aliquots of 4×10^6 cells were centrifuged and resuspended in 10 ml of RPMI containing 20% FCS, 100 μ/ml penicillin, and 0.25% agarose (plating agar). To determine the plating efficiency of the culture, a […] sample of the suspension containing 4000 cells was added to 5 ml of plating agar and layered over 5 ml prejelled layer of the same medium in a 100 mm petri dish. […] The suspension was then plated in two 5 ml aliquots, each layered over a prejelled layer of plating agar in a 100 mm petri dish (final TFTdR concentration=1 μg/ml). The plates were fed the following day with 3 ml of medium.
The plates were counted after 7-10 days in a 37° C., 5% CO2, humidified incubator.

In data set [3] the test system is TK6 cells and trifluorothymidine-resistant mutants. Kind of data set: Reconstruction experiment: toxicity of BMS to TK6 and mutants (Example 7, FIG. 5). Type of data set: cell-based, human. The conditions noted are these: 24 hours exposure; relative surviving fraction. The method, then: TK6 cells were exposed to BMS for 24 hours. After treatment, the relative surviving fraction was determined by plating in micro wells.

Data set [4] concerns TK6 cells. The data set can be described thus: Mutagenicity of polyaromatic hydrocarbons, trifluorothymidine resistance (Example 8, Table 4). Particulars: conclusion from plots and tables. The method, then:
Three polyaromatic hydrocarbons derived from kerosine soot were examined for mutagenicity.
Error bars are the standard deviation of the mean.
For perylene, TK6 cells were treated in duplicate with perylene for 3 hours in the presence of 5% (v/v) aroclor-induced rat liver post-mitochondrial supernatant.

The test system of data set [5] is trifluorothymidine-resistant TK6 mutant clones and TK6. The data set can be described thus: Growth of trifluorothymidine-resistant mutants in various media (Example 4, Table 2). Further details: key to T2 - F3 TdR (doubling time): NG means no growth was observed in 3 days. Particulars: F3 TdR 1.0 μg/ml. Type of data set: cell-based, human. The method, then:
Growth experiments were performed approximately three weeks later, in 25 cm^2 […] total volume. […] RPMI is normal medium with 15% fetal calf serum. […] CHAT contained 1×10^-5 M cytidine, 2×10^-4 M hypoxanthine, 2×10^-7 M aminopterin, and 1.75×10^-5 M thymidine.

The test system of data set [6] is TK6 cells. The data set can be described thus: Optimization of selective agent concentration (Example 6, FIG. 4). Type of data set: cell-based, human. The conditions noted are these: 0.33 μg/ml through 10 μg/ml; microtiter plates, two weeks. The text has this: FIG. 4 is a plot of the data obtained wherein each point is the average of two independent platings.

The test system of data set [7] is trifluorothymidine-resistant TK6 mutant clones. Kind of data set: Plating efficiency of induced mutants in trifluorothymidine (Example 6, Table 3). In kind it is cell-based, human. The text has this:
The effect of dead TK6 cells on the expression of mutants growing in microtiter plates was also studied.

Where [8] appears, read: 1 mM × 24 Hrs, day 1 post-treatment.
The mark [9] stands for this setting: 1 mM × 24 Hrs, day 3 post-treatment.
[10] abbreviates: 1 mM × 24 Hrs, day 5 post-treatment.
[11] abbreviates: 0.25 μg/ml × 24 Hrs, day 0 post-treatment.
[12] abbreviates: 0.25 μg/ml × 24 Hrs, day 2 post-treatment.
Where [13] appears, read: 0.25 μg/ml × 24 Hrs, day 4 post-treatment.
The mark [14] stands for this setting: 0.5 μg/ml × 24 Hrs, day 0 post-treatment.
The mark [15] stands for this setting: 0.5 μg/ml × 24 Hrs, day 2 post-treatment.
The mark [16] stands for this setting: 0.5 μg/ml × 24 Hrs, day 4 post-treatment.

Turning to `Nc1nc2nc[nH]c2c(=S)[nH]1` [6-thioguanine], in data set [1], the “phenotypic expression time of 6-thioguanine resistance” value was 5 to 6 days.
With `CCCCOS(C)(=O)=O` [BMS, butylmethane sulfonate], the “Observed Mutants per 4 × 10^6 Cells” value in data set [2] (setting [8]) is on record as 132; in data set [2] (setting [9]) it was 275; in data set [2] (setting [10]), 387. For the same compound, the “Plating Efficiency” value in data set [2] (setting [8]) was 0.094; in data set [2] (setting [9]) it was 0.15; in data set [2] (setting [10]), 0.23. Also, the “toxicity to TK6 and a mixture of mutants or a single mutant clone” value in data set [3] is “equally toxic”.
Regarding `COc1ccc2nc3cc(Cl)ccc3c(NCCCNCCCl)c2c1` [ICR-191], the “Observed Mutants per 4 × 10^6 Cells” value in data set [2] (setting [11]) was 26; in data set [2] (setting [12]) it was 139; in data set [2] (setting [13]), 126; in data set [2] (setting [14]), 55; in data set [2] (setting [15]) it was 229; in data set [2] (setting [16]), 182. Also, the “Plating Efficiency” value is given as 0.25 in data set [2] (setting [11]); 0.26 in data set [2] (setting [12]); 0.27 in data set [2] (setting [13]); 0.24 in data set [2] (setting [14]); 0.25 in data set [2] (setting [15]); 0.20 in data set [2] (setting [16]).
With `c1ccc2c(c1)-c1cccc3cccc-2c13` [fluoranthene], the “mutagenic activity for these human cells” value in data set [4] was “active as mutagens”.
For the compound `c1cc2cccc3c4cccc5cccc(c(c1)c23)c54` [perylene], the “mutagenic activity for these human cells” value in data set [4] is “inactive”.
As to `O=c1[nH]c(=O)n([C@H]2C[C@H](O)[C@@H](CO)O2)cc1C(F)(F)F` [trifluorothymidine], the “T2 - F3 TdR (doubling time)” value in data set [5] (TK6) was “NG”; in data set [5] (mutant BMS-2), 18.4; in data set [5] (mutant BMS-3), 19.2; in data set [5] (mutant BMS-4), 17.7; in data set [5] (mutant BMS-5), 19.7; in data set [5] (mutant ICR-1) it was 18.6. Also, the “T2 - F3 TdR (doubling time)” value in data set [5] (mutant ICR-2) is listed as 21.2. In addition, the “growth of mutants in F3 TdR” value in data set [5] (all mutants) is reported as “all mutants grew well”. Further, the “observed mutant fraction of an untreated culture versus trifluorothymidine concentration” value in data set [6] was “no difference in the observed mutant fraction”. Also, the “PE in RPMI - F3 TdR” value in data set [7] (mutant BMS-2) is given as 0.09; in data set [7] (mutant BMS-3), 0.21; in data set [7] (mutant BMS-4), 0.11; in data set [7] (mutant BMS-5) it was 0.29; in data set [7] (mutant ICR-1), 0.21; in data set [7] (mutant ICR-2), 0.09. In addition, the “PE in RPMI-F3 TdR with 40,000 TK6/well” value in data set [7] (mutant BMS-2) came to 0.09; in data set [7] (mutant BMS-3), 0.17; in data set [7] (mutant BMS-4) it was 0.15; in data set [7] (mutant BMS-5), 0.31; in data set [7] (mutant ICR-1), 0.21; in data set [7] (mutant ICR-2), 0.10.
